# Measured values taken from patent publication US10945932B2, “Prebiotic oral care compositions containing carboxylic acids” (COLGATE-PALMOLIVE COMPANY, priority 2013, dated 2021).
# Read-outs that look alike come from different tables or passages of the source.
# Legend:
# Actinomyces naeslundii [1] = details: A naeslundii, BHI
# Method: (§1) Late exponential growth phase liquid cultures were prepared by transferring the respective bacterium from blood agar plates to BHI and overnight incubation at 37° C. in an anaerobic atmosphere for A. viscosus, V. parvula, F. nucleatum, P. gingivalis, P. intermedia, T forsythia, A. naeslundii, and C. sputigena, and in a 5% CO2 environment for S. salivarius, S. sanguinis, S. mitis, A. actinomycetemcomitans, S. mutans, S. sobrinus and S. gordonii. Overnight cultures were transferred to BHI and adjusted to a concentration of 1×10^7 CFU/ml (colony forming units per ml) by measuring the optical density at 600 nm (OD600) (BioRad SmartSpec 3000). For each strain, 200 μl of the bacterial suspension was added to a 96-well plate containing 20 μl of the respective carboxylic acids. Final concentrations of the carboxylic acids were set to 5, 10, 20 and 25 μmol/ml. […] Plates were incubated as previously described.
# (§2) For each combination of bacterium/carboxylic acid, and for each of their respective controls (i.e. the particular bacterium in the nutritionally rich medium with no carboxylic acid), the optical density was measured at 630 nm (OD630) at 0 h, 24 h and 48 h (Thermo Scientific Multiskan Ascent). Additionally, the OD630 for combinations of bacterium/carboxylic acid grown in a 5% CO2 environment were also measured every hour between 0 h and 9 h.
# (§3) The experiment was carried out on three different days (thus providing 3 biological replicas) and on each day the experiment was carried out in quadruple (thus providing 4 technical replicas) for each combination of bacterium with carboxylic acid and for each control. For each day and for each combination, the average (mean) of the values obtained (as detailed above) for the four technical replicas was calculated to provide a single value for each combination on each day.
# Streptococcus salivarius [2] = details: S salivarius, BHI
# Method: as §1, §2, §3
# Veillonella parvula [3] = details: V parvula, BHI
# Method: as §1, §2, §3
# [4] = system: Aggregatibacter actinomycetemcomitans; experiment: Metabolic activity, Biolog phenotype microarray; type: cell-based; details: A actinomycetemcomitans
# Streptococcus sobrinus = experiment: Metabolic activity, Biolog phenotype microarray; type: cell-based; details: S sobrinus
# Capnocytophaga sputigena = experiment: Metabolic activity, Biolog phenotype microarray; type: cell-based; details: C sputigena
# Veillonella parvula [5] = experiment: Metabolic activity, Biolog phenotype microarray; type: cell-based; details: V parvula
# Prevotella intermedia = experiment: Metabolic activity, Biolog phenotype microarray; type: cell-based; details: P intermedia
# Streptococcus sanguinis = experiment: Metabolic activity, Biolog phenotype microarray; type: cell-based; details: S sanguinis
# Streptococcus salivarius [6] = experiment: Metabolic activity, Biolog phenotype microarray; type: cell-based; details: S salivarius
# Streptococcus gordonii = experiment: Metabolic activity, Biolog phenotype microarray; type: cell-based; details: S gordonii
# Streptococcus mitis = experiment: Metabolic activity, Biolog phenotype microarray; type: cell-based; details: S mitis
# Streptococcus mutans = experiment: Metabolic activity, Biolog phenotype microarray; type: cell-based; details: S mutans
# Actinomyces viscosus = experiment: Metabolic activity, Biolog phenotype microarray; type: cell-based; details: A viscosus
# Tannerella forsythia = experiment: Metabolic activity, Biolog phenotype microarray; type: cell-based; details: T forsythia
# Actinomyces naeslundii [7] = experiment: Metabolic activity, Biolog phenotype microarray; type: cell-based; details: A naeslundii
# Fusobacterium nucleatum [8] = experiment: Metabolic activity, Biolog phenotype microarray; type: cell-based; details: F nucleatum
# Porphyromonas gingivalis = experiment: Metabolic activity, Biolog phenotype microarray; type: cell-based; details: P gingivalis
# [9] = system: beneficial oral bacteria and pathogenic oral bacteria; experiment: Biofilm growth, prebiotic effect over the whole panel; type: cell-based; details: 25 μmol/ml; 48 hours; threshold value of 1.6
# Method: Late exponential growth phase liquid cultures were prepared by transferring the respective bacterium from blood agar plates to BHI and overnight incubation at 37° C. in an anaerobic atmosphere for A. viscosus, V. parvula, F. nucleatum, P. gingivalis, P. intermedia, T. forsythia, A. naeslundii, and C. sputigena, and in a 5% CO2 environment for S. salivarius, S. sanguinis, S. mitis, A. actinomycetemcomitans, S. mutans, and S. gordonii. […] Additionally, for each bacterium tested, a background control, to correct for background staining, was added. This background control contained the bacterium tested and 0.03 weight % chlorhexidine, as an antiseptic. Plates were incubated as previously described. After 48 hrs the supernatant was removed from the wells of the plates. The wells were washed twice with 1×100 μL/PBS (phosphate buffered saline), fixed for 20 minutes with 96% vol. ethanol (96% vol. solution in water) and the biofilm retained at the bottom of the wells was stained with 1 weight % crystal violet (1 weight % solution in water). […] Quantification of the stained biofilm was performed by measuring the absorbance at 630 nm using a Multiskan Ascent microplate reader (Thermo Scientific).
# [10] = system: Aggregatibacter actinomycetemcomitans; experiment: Biofilm growth assay in BHI, crystal violet; type: cell-based; details: A actinomycetemcomitans
# Procedure, shortened: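 Bacteria were grown overnight in BHI at 37° C. P. gingivalis and A. naeslundii were grown anaerobically, and S. sanguinis and S. gordonii in 5% CO2. After 48 hrs, biofilms were washed, ethanol-fixed, stained with 1% crystal violet and read at 630 nm. Background was corrected using bacterium plus 0.03% chlorhexidine wells.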
# Fusobacterium nucleatum [11] = details: F nucleatum, BHI
# Method: as §1, §2, §3
smiles,measurement,setting,value
"O=C(O)CCC(=O)O [Succinic acid, succinic acid]","extent of growth, maximal OD630 over 48 hr divided by maximal OD of control (control = 1)",Actinomyces naeslundii [1]; 5 μmol/ml,0.9975
same,"extent of growth, maximal OD630 over 48 hr divided by maximal OD of control (control = 1)",Actinomyces naeslundii [1]; 10 μmol/ml,0.5885
same,"extent of growth, maximal OD630 over 48 hr divided by maximal OD of control (control = 1)",Actinomyces naeslundii [1]; 20 μmol/ml,0.2228
same,"extent of growth, maximal OD630 over 48 hr divided by maximal OD of control (control = 1)",Actinomyces naeslundii [1]; 25 μmol/ml,0.1840
same,"extent of growth, maximal OD630 over 48 hr divided by maximal OD of control (control = 1)",Streptococcus salivarius [2]; 5 μmol/ml,1.0823
same,"extent of growth, maximal OD630 over 48 hr divided by maximal OD of control (control = 1)",Streptococcus salivarius [2]; 10 μmol/ml,0.8904
same,"extent of growth, maximal OD630 over 48 hr divided by maximal OD of control (control = 1)",Streptococcus salivarius [2]; 20 μmol/ml,0.2795
same,"extent of growth, maximal OD630 over 48 hr divided by maximal OD of control (control = 1)",Streptococcus salivarius [2]; 25 μmol/ml,0.2197
same,"extent of growth, maximal OD630 over 48 hr divided by maximal OD of control (control = 1)",Veillonella parvula [3]; 5 μmol/ml,1.1624
same,"extent of growth, maximal OD630 over 48 hr divided by maximal OD of control (control = 1)",Veillonella parvula [3]; 10 μmol/ml,1.1922
same,"extent of growth, maximal OD630 over 48 hr divided by maximal OD of control (control = 1)",Veillonella parvula [3]; 20 μmol/ml,1.4603
same,"extent of growth, maximal OD630 over 48 hr divided by maximal OD of control (control = 1)",Veillonella parvula [3]; 25 μmol/ml,1.3566
same,"metabolic activity, OD at 492 nm divided by OD of control (control = 1)",[4]; 24 hrs,1.1066
same,"metabolic activity, OD at 492 nm divided by OD of control (control = 1)",[4]; 48 hrs,1.2815
same,"metabolic activity, OD at 492 nm divided by OD of control (control = 1)",Streptococcus sobrinus; 24 hrs,0.8265
same,"metabolic activity, OD at 492 nm divided by OD of control (control = 1)",Streptococcus sobrinus; 48 hrs,0.8068
same,"metabolic activity, OD at 492 nm divided by OD of control (control = 1)",Capnocytophaga sputigena; 24 hrs,1.0400
same,"metabolic activity, OD at 492 nm divided by OD of control (control = 1)",Capnocytophaga sputigena; 48 hrs,1.0105
same,"metabolic activity, OD at 492 nm divided by OD of control (control = 1)",Veillonella parvula [5]; 24 hrs,2.8247
same,"metabolic activity, OD at 492 nm divided by OD of control (control = 1)",Veillonella parvula [5]; 48 hrs,2.2852
same,"metabolic activity, OD at 492 nm divided by OD of control (control = 1)",Prevotella intermedia; 24 hrs,1.0677
same,"metabolic activity, OD at 492 nm divided by OD of control (control = 1)",Prevotella intermedia; 48 hrs,1.1361
same,"metabolic activity, OD at 492 nm divided by OD of control (control = 1)",Streptococcus sanguinis; 24 hrs,0.9046
same,"metabolic activity, OD at 492 nm divided by OD of control (control = 1)",Streptococcus sanguinis; 48 hrs,0.8763
same,"metabolic activity, OD at 492 nm divided by OD of control (control = 1)",Streptococcus salivarius [6]; 24 hrs,0.9019
same,"metabolic activity, OD at 492 nm divided by OD of control (control = 1)",Streptococcus salivarius [6]; 48 hrs,0.8347
same,"metabolic activity, OD at 492 nm divided by OD of control (control = 1)",Streptococcus gordonii; 24 hrs,0.7960
same,"metabolic activity, OD at 492 nm divided by OD of control (control = 1)",Streptococcus gordonii; 48 hrs,0.8167
same,"metabolic activity, OD at 492 nm divided by OD of control (control = 1)",Streptococcus mitis; 24 hrs,0.9268
same,"metabolic activity, OD at 492 nm divided by OD of control (control = 1)",Streptococcus mitis; 48 hrs,0.8537
same,"metabolic activity, OD at 492 nm divided by OD of control (control = 1)",Streptococcus mutans; 24 hrs,0.8991
same,"metabolic activity, OD at 492 nm divided by OD of control (control = 1)",Streptococcus mutans; 48 hrs,0.8576
same,"metabolic activity, OD at 492 nm divided by OD of control (control = 1)",Actinomyces viscosus; 24 hrs,0.9752
same,"metabolic activity, OD at 492 nm divided by OD of control (control = 1)",Actinomyces viscosus; 48 hrs,1.0089
same,"metabolic activity, OD at 492 nm divided by OD of control (control = 1)",Tannerella forsythia; 24 hrs,0.9307
same,"metabolic activity, OD at 492 nm divided by OD of control (control = 1)",Tannerella forsythia; 48 hrs,0.9641
same,"metabolic activity, OD at 492 nm divided by OD of control (control = 1)",Actinomyces naeslundii [7]; 24 hrs,0.9767
same,"metabolic activity, OD at 492 nm divided by OD of control (control = 1)",Actinomyces naeslundii [7]; 48 hrs,0.9858
same,"metabolic activity, OD at 492 nm divided by OD of control (control = 1)",Fusobacterium nucleatum [8]; 24 hrs,0.8508
same,"metabolic activity, OD at 492 nm divided by OD of control (control = 1)",Fusobacterium nucleatum [8]; 48 hrs,0.8574
same,"metabolic activity, OD at 492 nm divided by OD of control (control = 1)",Porphyromonas gingivalis; 24 hrs,0.8726
same,"metabolic activity, OD at 492 nm divided by OD of control (control = 1)",Porphyromonas gingivalis; 48 hrs,0.9109
same,prebiotic effect (biofilm growth),[9],exhibited prebiotic effects
same,"biofilm growth, OD at 630 nm (crystal violet) at 48 hrs divided by OD of control (control = 1)",[10]; 5 μmol/ml,0.6941
same,"biofilm growth, OD at 630 nm (crystal violet) at 48 hrs divided by OD of control (control = 1)",[10]; 10 μmol/ml,0.5093
same,"biofilm growth, OD at 630 nm (crystal violet) at 48 hrs divided by OD of control (control = 1)",[10]; 20 μmol/ml,0.0593
same,"biofilm growth, OD at 630 nm (crystal violet) at 48 hrs divided by OD of control (control = 1)",[10]; 25 μmol/ml,0.0581
same,"extent of growth, maximal OD630 over 48 hr divided by maximal OD of control (control = 1)",Fusobacterium nucleatum [11]; 5 μmol/ml,0.9913
same,"extent of growth, maximal OD630 over 48 hr divided by maximal OD of control (control = 1)",Fusobacterium nucleatum [11]; 10 μmol/ml,1.0196
same,"extent of growth, maximal OD630 over 48 hr divided by maximal OD of control (control = 1)",Fusobacterium nucleatum [11]; 20 μmol/ml,0.2006
same,"extent of growth, maximal OD630 over 48 hr divided by maximal OD of control (control = 1)",Fusobacterium nucleatum [11]; 25 μmol/ml,0.1511
